From patent US5141627A, “Chelators whose affinity for calcium ion is increased by illumination” (The Regents of the University of California, priority 1989, dated 1992)
Where two headings read alike, the source gives them in different places.

Key:
cells = test: Effect in cells of microinjected chelator on Ca2+ after photolysis; type: cell-based; conditions: microinjected into cells
[1] = Chemical stability in aqueous base or acid; type: physicochemical
Description: Diazo-2 tetramethyl ester, Compound 3J, was saponified to the tetra-anion by dissolution in methanol (gentle heat), addition of an excess of aqueous 1M potassium hydroxide solution and keeping at room temperature several hours, preferably overnight. […] The purity of diazo-2 solutions can be determined by measuring the extent of absorbance change on complete photolysis (FIG. 1B) as contaminants contribute absorbance at 355 nm. Diazo-1, -3, and -4 esters were saponified analogously.

[2] = Quantum efficiency and completion of photolysis; type: physicochemical; conditions: for Φ quantum efficiency of photolysis, free: zero [Ca2+]
Experimental: Spectra were obtained after 0, 2, 5, 9, 16, 28, 46, 80, 150, 285, 505 and 903 sec of 365-nm illumination at 7.82×10^- 9 einsteins cm^-2 s^-1 from Spectroline lamp. For clarity only the 0-, 9-, 28-, 46-, 80-, 150-, and 505-s spectra are reproduced herein. The 505- and 903-s spectra were identical, confirming completion of photolysis after those times. Solutions were at 22±2° C.
The method was as described in FIG. 1B except that the EGTA was replaced by 2 mM CaCl2, and spectra were measured after 0-, 50-, 100-, 203-, 412-, 840-, 1730-, 4080-, and 8000-s illumination. The last two spectra were identical, confirming completion. For clarity the 50- and 8000-s spectra are omitted.
The photolysis quantum efficiencies of diazo chelators were determined by alternately irradiating a buffered solution of the substrate with a known intensity of longwave UV light, and measuring the absorbance spectrum, in apparatus described by S. R. Adams, et al. (1988), supra.

[3] = Ca2+ affinity by UV spectra during titration of EGTA or HEEDTA buffers; type: binding
Experimental: The titration was done at 22° C. with 10 mL of 100 mM KCl, 10 mM K-MOPS, 10 mM K2 H.HEEDTA, and 14 […] diazo-2 as starting materials, adjusting the pH to 7.24, recording the spectrum, and then discarding 1.0 mL of this solution and replacing with 1.0 mL of 100 mM KCl, 10 mM K.MOPS, 10 mM KCa.HEEDTA, 14 μM diazo-2, readjusting the pH to 7.24, and recording the spectra, which was then in 9 mM K2H.HEEDTA. Subsequent iterations to reach n mM KCa.HEEDTA, (10-n) mM HEEDTA, n=2-10, were done by discarding 10.0/(11-n) mL and replacing with equal volumes of the 10mM KCa.HEEDTA, 14 μM diazo-2 stock. After n=10 had been reached to give free Ca^2+ between 10^-5 and 10^-4 M, addition of 1 mM CaCl2 had no further effect on the spectrum. For clarity only six spectra are including in the figure, n=0, 2, 4, 6, 8, and 10. Each spectrum is labeled with the calculated free [Ca^2+ ] imposed by the HEEDTA buffer, assuming a log effective stability constant of 5.55 at pH 7.24.
The phenylacetate was produced by irradiating a 30 μM solution of diazo-2 in 100 mM KCl, 10 mM Tris.HCl, 10 mM K2 H.HEEDTA, pH 8.40, with Spectroline lamp at 365 nm to completion. The titration was then performed as in A but the pH was maintained at 8.40, at which the calculated log effective stability is constant for HEEDTA was 6.60.
Ca^2+ -binding constants for chelators before and after photolysis were determined by monitoring UV spectra during titration of EGTA or HEEDTA buffers to varying free Ca^2+ levels.
Either the ratio of, for example, [Ca.EGTA] to free [EGTA] was adjusted at a constant pH, or the pH was varied while [Ca.EGTA]=[EGTA]. These two approaches gave equivalent answers for pH>7 whenever directly tested, because of the pH insensitivity of BAPTA-like ligands (see FIG. 1 legend for more details). The apparent dissociation constants of Ca.EGTA and Ca.HEEDTA were calculated as described by R. Y. Tsien (1980); see also R. Y. Tsien, et al. (1986), S. R. Adams, et al. (1980), Grynkiewicz, et al., (1985), and Jackson, et al. (1987).

[4] = as above; type: binding; conditions: after photolysis; 0.25M ionic strength (0.2M KCl, 0.05M NaCl), 18° C.
[5] = Covalent modification of lysine by photochemical intermediates (HPLC); conditions: pH 7.2
Experimental: To study the extent to which biological substrates are covalently modified by reactive intermediates generated by the photolysis of the diazoketones,100 μM diazo-3 in the presence of 10 mM phosphate and either 100 mM KCl or 100 mM lysine.HCl, at pH 7.2 was photolyzed. The photolysates were analyzed by HPLC (Waters Associates, Inc., Milford, Mass.; C-18 column, Supelco, Inc., Bellefonte, Pa.), with 10 mM KH2 PO4 /K2 HPO4 buffer at pH 7.2 as eluting solvent. The absorbance of the eluate at 254 nm was monitored. Before being injected onto the column, concentrated stock solutions of either KCl or lysine.HCl were added to the photolysate to insure that the electrolyte composition of the injected samples were identical. Thus, 10 μL of 1M KCl were added to 100 μL of the samples of diazo-3 photolyzed in lysine.HCl, while 10 μL of 1M lysine.HCl were added to 100 μL of the sample of diazo-3 photolyzed in KCl.

Row | stability on concentration to a solid (in words) ([1]; from dilute aqueous base, concentrated to a solid) | stability in dilute aqueous base (in words) ([1]; methanol/aqueous KOH, room temperature, several hours to overnight) | stability in strong aqueous base or acid (in words) ([1]; pH>13 or pH<4) | quantum yield of photolysis ([2]; 365 nm) | Φ quantum efficiency of photolysis, +Ca2+ ([2]; saturating [Ca2+]) | Φ quantum efficiency of photolysis, free [2] | Kd ([3]; after photolysis, 0.1-0.15M ionic strength, 20-23° C., read-out: Kd (Ca2+), after photolysis) [µM] | Kd ([3]; before photolysis, 0.1-0.15M ionic strength, pH 7.0-7.4, 20-23° C., read-out: Kd (Ca2+), before photolysis) [µM] | Kd [4] [µM] | Kd ([3]; negligible affinity, pre- and post-photolysis, read-out: Kd (Ca2+)) [µM] | SMILES | sequestering Ca2+ after photolysis (in words) (cells) | illumination time to completion of photolysis, free ([2]; 365 nm, 7.82×10^-9 einsteins cm^-2 s^-1, absence of Ca2+, 8 μM) [s] | covalently modified lysines ([5]; 100 μM diazo-3, 200 mM lysine.HCl (so in the source)) [lysines in 10^5] | frequency of covalent lysine modification ([5]; 100 μM diazo-3 photolyzed in 100 mM lysine.HCl) | absorbance under new (lysine-modified) peak ([5]; 100 μM diazo-3 photolyzed in 100 mM lysine.HCl, % of total absorbance) | modified lysine produced ([5]; 100 μM diazo-3 photolyzed in 100 mM lysine.HCl, calculated)
1 | decomposes and becomes light-insensitive | stable | unstable | 0.030 | 0.030 | 0.057 | 0.073 | 2.2 | 0.15 | – | Cc1ccc(N(CC(=O)O)CC(=O)O)c(OCCOc2cc(C(=O)C=[N+]=[N-])ccc2N(CC(=O)O)CC(=O)O)c1 [diazo-2, 1-(2-bis(carboxymethyl)amino-5-methyl) phenoxy-2-(2-bis(carboxymethyl)amino-5-(diazoacetyl)phenoxy) ethane] | effective in sequestering Ca^2+ after photolysis | ≤ 505 | – | – | – | –
2 | – | – | – | – | – | 0.048 | – | – | – | > 1000 | COc1cc(C(=O)C=[N+]=[N-])ccc1N(CC(=O)O)CC(=O)O [diazo-3, 2-methoxy-4-(diazoacetyl)aniline-N, N-diacetic acid] | – | – | 6 | about 6×10^-5 | about 6% | about 6 μM
